{"source": "patent US8609361B2", "about": "“Real time electrophysiological testing of agents of interest for treatment of amyloid-type diseases” (Universidad de Concepcion, priority 2007, dated 2013)", "key": {"[1]": {"test_system": "plasma membrane of hippocampal neurons", "assay": "cell-attached to perforated patch-clamp recording with the agent in the glass pipette", "assay_type": "cell-based, mice", "protocol": "In absence of Aβ or gramicidin, cell attached recordings are stable for more than 60 min.\nControl is the charge in cell-attached configuration and reflects the recording of the glass pipette properties partially compensated to visualize part of the transient. Negative pressure reflects the charge obtained with a routine whole-cell configuration. Gramicidin and amphotericin are antibiotics routinely used to generate perforates. Data are ±S.E. average (n=6; different experiments).\nThe experimental evidence of the invention allows establishing that conductance changes may be the result of the forming of a cationic-type pore, very similar to that generating gramicidin. […] Basically, this invention procedure is formed by two stages: • b) Exposing a small area or patch of plasma membrane, in a preferable embodiment said membranes are neuron membranes, to peptide aggregates under study and/or to active ingredients, and/or compounds of interest. • c) Determining, measuring, and quantifying electric parameters of membranes exposed to these aggregates; in a preferable embodiment, the parameter is conductance (inverse of electrical resistance resulting from resistance range and the glass pipette potential).\nThe method described in this invention uses a variation of the technique known as patch cell-attached to study the Aβ peptide effects. In this invention embodiment, records very stable in time are obtained and maintained for more than 5 minutes, preferably for more than 15 minutes, and more preferably for more than 30 minutes. At the same time, this embodiment provides an intrinsic noise level under 5 pA, preferably under 3 pA, and more preferably under 1 pA, which may be due to the registry being obtained from a small cell area that normally contains very few ionic channels. […] However, the most important characteristics in this event is the evidence of the fast capacitative resistance component, which reflects formation of a perforated form that supports the conclusion that pores are generated in the membrane (see FIGS. 1 and 2).\nAnimals are treated and handled according to the NIH recommendations. 18-day pregnant mice (C57BL7J6) are anesthetized with ether and sacrificed through cervical dislocation. Embryo are quickly removed and beheaded with sterile material. Brains are removed and kept in cold Hank medium.\nThe midbrain is separated in order to expose the hippocampus area, which is dissected from the brain and mechanically dispersed using trypsin, collagenase, and DNAsa III. Neurons are placed (“planted”) in 35 mm dishes covered with poly-L-lisine at a density of 350000 neurons per ml.\nNeurons are left to grow in vitro during 12 days, and then recorded using electro-physiology. The means of culture is 80% MEM, 2 mM glutamine, and 10% bovine fetal serum. The means are changed every three days. Every reagent used is dissolved in PBS, which is used as control.\nPeptide aggregates are diluted to working concentration and were made at concentrations from 0.01 μM to 50 μM, preferably between 0.03 and 20, more preferably 0.05 and 10 μM. This aggregate is diluted in an internal solution (called so because it artificially imitates intra-cell fluid) mainly formed by KCl, BAPTA, calcium, and ATP, as previously described. The aggregate is diluted in this solution, which is loaded into the pipette to be used for Patch-Clamp. This solution is taken into a tuberculin syringe, from which the needle has been removed, and a small capillary-HPLC is added. With this modified syringe, the internal solution volume is taken with no Aβ aggregates as control. It may also be used with the aggregate and/or other molecules of biologic interest in the event evaluations and determining the said molecules' pharmacologic activities is required.\nUsing the capillary-HPLC in the syringe, the internal solution is introduced into the glass pipette, slowly removing it as the pipette becomes full in order to reduce bubbles. […]"}, "AMPA and NMDA receptors": {"test_system": "AMPA and NMDA receptors", "details": "reported in the art; cited from earlier work"}, "neurons": {"test_system": "neurons", "assay": "whole-cell patch clamp, membrane potential", "assay_type": "cell-based, mice", "details": "low concentrations (preferably less than 1 μM, more preferably 0.5 μM Aβ)"}, "[2]": {"assay": "Aβ peptide aggregation in solution followed by turbidity (optical density)", "assay_type": "physicochemical", "details": "about 100 μM peptide in PBS pH 7.4, stirring about 600 rpm, about 37° C., after 120 minutes", "protocol": "FIG. 2A is a graph indicating the Aβ peptide aggregation structure progress in solution. […] The solution absorbency measurement is observed as a change in optical densities (D.O.), which reflects formation of complex structures, amyloid aggregates. Images B-D correspond to ultra micro photographs obtained with an electronic microscope. The recognition of different structures formed during the aggregation process is possible. Aggregates obtained at 120 min and fibers obtained at 5 days of aggregation are readily noticed.\nIn order to generate the working solution, these portions are defrosted under a laminar flow bell and diluted in sterile PBS at pH 7.4. 700 μl PBS are added to the 25 μl of each peptide portion, obtaining a final work volume of 725 μl, with peptide at an approximate concentration of 100 μM. This peptide solution is defined as “Soluble Peptide” and it is mainly formed by Aβ peptide monomers. This soluble peptide is induced to aggregation by stirring at approximately 600 rpm at temperature around 37° C. During this process, the solution optical density is determined at 405 nm every 15 minutes for a total time of 120 minutes. […] This solution is called “Aggregate Peptide”, and electronic microscope inspection has determined that it corresponds to a heterogeneous structure population, among which amorphous aggregate shapes, 100 nm protofibril, and short fibers are noted."}}}
{"compound": "gramicidin", "values": [{"measurement": "development of perforation", "setting": "[1]; 50 μM in the glass pipette, FIG. 1B", "result": "typical perforation"}]}
{"compound": "N#Cc1cc2[nH]c(=O)c(=O)[nH]c2cc1[N+](=O)[O-]", "note": "[CNQX]", "values": [{"measurement": "inhibition of peptide effects on calcium levels", "setting": "AMPA and NMDA receptors", "result": "inhibited"}]}
{"compound": "Aβ: Synthetic peptide Aβ1-40 (TOCRIS or Sigma), human sequence of β-amyloid peptide, aggregated by stirring at 37° C.", "values": [{"measurement": "conversion of the cell-attached recording into a perforated recording (increased capacitative peak and late conductance)", "setting": "[1]; 500 nM in the glass pipette solution, FIG. 1A", "result": "spontaneously convert the recording into a perforated variation of the technique"}, {"measurement": "charge transferred by the cellular membrane during a 10 mV pulse", "setting": "[1]; FIG. 3, n=6", "result": "form perforations in the membrane"}, {"measurement": "input current following the high-resistance seal formation", "setting": "[1]; in the presence of Aβ", "result": "−40 to −70", "unit": "pA"}, {"measurement": "current range", "setting": "[1]; low-concentration peptide, few pores in the cell", "result": "≤ 50", "unit": "pA"}, {"measurement": "membrane de-polarization", "setting": "[1]; measurements and recordings of the invention method", "result": "has not been detected"}, {"measurement": "changes in membrane potential", "setting": "neurons", "result": "have not shown significant changes in membrane potential"}, {"measurement": "solution optical density at 405 nm", "setting": "[2]", "result": "0.2-0.3"}]}
